This passage reports MIC results from ChEMBL document CHEMBL5131475, “Metallo-β-lactamases inhibitor fisetin attenuates meropenem resistance in NDM-1-producing Escherichia coli” (Eur J Med Chem, 2022).

In brackets after ≈: the same amount, converted by molar mass.

Format in all cases: functional
Common to all, as to details: time 18-24 hrs

In experiment [1] the test system is Escherichia coli. The experiment is described as follows: Antibacterial activity against NDM-1 positive Escherichia coli ZC-YN3 isolates assessed as inhibition of bacterial growth incubated for 18 to 24 hrs by CLSI based broth microdilution method.
For experiment [2], the system named is Escherichia coli. The experiment is described as follows: Antibacterial activity against pET28a-NDM-1 positive Escherichia coli BL21(DE3) isolates assessed as inhibition of bacterial growth incubated for 18 to 24 hrs by CLSI based broth microdilution method.
Experiment [3] concerns Escherichia coli. The experiment is described as follows: Antibacterial activity against NDM-1 positive MCR1 carrying Escherichia coli ZJ487 isolates assessed as inhibition of bacterial growth incubated for 18 to 24 hrs by CLSI based broth microdilution method.
For experiment [4], the system named is Escherichia coli. The experiment is described as follows: Antibacterial activity against NDM-1 negative Escherichia coli BL21(DE3) pET28a isolates assessed as inhibition of bacterial growth incubated for 18 to 24 hrs by CLSI based broth microdilution method.
Experiment [5] has as its system Escherichia coli. The experiment is described as follows: Antibacterial activity against NDM-1 negative Escherichia coli ATCC25922 isolates assessed as inhibition of bacterial growth incubated for 18 to 24 hrs by CLSI based broth microdilution method.

As for `CC1(C)S[C@@H]2[C@H](NC(=O)[C@H](N)c3ccccc3)C(=O)N2[C@H]1C(=O)O` [AMPICILLIN], the MIC in experiment [1] and in experiment [2] was 853 µg/mL (≈ 2440 µM) in each case.

`CO/N=C(\C(=O)N[C@@H]1C(=O)N2C(C(=O)O)=C(COC(C)=O)CS[C@H]12)c1csc(N)n1` [CEFOTAXIME]: the MIC in experiment [1] and in experiment [2] was 512 µg/mL (≈ 1120 µM) in each case.

Take `C[C@H]1c2cccc(O)c2C(=O)C2=C(O)[C@]3(O)C(=O)C(C(N)=O)=C(O)[C@@H](N(C)C)[C@@H]3[C@@H](O)[C@@H]21.O` [DOXYCYCLINE]: the MIC is 64 µg/mL in experiment [1] and 128 µg/mL in experiment [2].

Take `CS(=O)(=O)c1ccc([C@@H](O)[C@@H](CF)NC(=O)C(Cl)Cl)cc1` [FLORFENICOL]: the values for the MIC in experiment [1] and in experiment [2] were 427 µg/mL (≈ 1190 µM) and 1020 µg/mL (≈ 2850 µM), respectively.

As for `C[C@@H](O)[C@H]1C(=O)N2C(C(=O)O)=C(SCCNC=N)C[C@H]12` [IMIPENEM ANHYDROUS], the MIC in experiment [1] and in experiment [2] was 26.7 µg/mL (≈ 89.2 µM) each time.

Consider `NC[C@H]1O[C@H](O[C@H]2[C@H](O)[C@@H](O[C@H]3O[C@H](CO)[C@@H](O)[C@H](N)[C@H]3O)[C@H](N)C[C@@H]2N)[C@H](O)[C@@H](O)[C@@H]1O` [KANAMYCIN], for which the MIC in experiment [1] came to 853 µg/mL (≈ 1760 µM); in experiment [2], 512 µg/mL (≈ 1060 µM).

`CCC[C@@H]1C[C@@H](C(=O)N[C@@H]([C@H]2O[C@H](SC)[C@H](O)[C@@H](O)[C@H]2O)[C@@H](C)O)N(C)C1` [LINCOMYCIN]: the MIC in experiment [1] and in experiment [2] was 1020 µg/mL (≈ 2510 µM) each time.

For `C[C@@H](O)[C@H]1C(=O)N2C(C(=O)O)=C(S[C@@H]3CN[C@H](C(=O)N(C)C)C3)[C@H](C)[C@H]12` [MEROPENEM], the MIC in experiment [3] worked out at 21.3 µg/mL (≈ 55.5 µM); in experiment [4], 0.01 µg/mL (≈ 0.0261 µM); in experiment [5], 0.01 µg/mL (≈ 0.0261 µM); in experiment [1] it was 16 µg/mL (≈ 41.7 µM); in experiment [2], 37.3 µg/mL (≈ 97.3 µM).

For `CO[C@H]1/C=C/O[C@@]2(C)Oc3c(C)c(O)c4c(O)c(c(/C=N/N5CCN(C)CC5)c(O)c4c3C2=O)NC(=O)/C(C)=C\C=C\[C@H](C)[C@H](O)[C@@H](C)[C@@H](O)[C@@H](C)[C@H](OC(C)=O)[C@@H]1C` [RIFAMPIN], the MIC in experiment [1] was 13.3 µg/mL (≈ 16.2 µM); in experiment [2], 1020 µg/mL (≈ 1240 µM).

For `CN[C@@H]1[C@H](O)[C@H](NC)[C@H]2O[C@@]3(O)C(=O)C[C@@H](C)O[C@H]3O[C@@H]2[C@H]1O` [SPECTINOMYCIN], the MIC was 853 µg/mL (≈ 2570 µM) in experiment [1] and 512 µg/mL (≈ 1540 µM) in experiment [2].

As to `CN[C@@H]1[C@H](O[C@H]2[C@H](O[C@H]3[C@H](O)[C@@H](O)[C@H](N=C(N)N)[C@@H](O)[C@@H]3N=C(N)N)O[C@@H](C)[C@]2(O)C=O)O[C@@H](CO)[C@H](O)[C@H]1O` [STREPTOMYCIN], the values for the MIC in experiment [1] and in experiment [2] were 256 µg/mL (≈ 440 µM) and 53.3 µg/mL (≈ 91.6 µM), respectively.

Take `CN(C)[C@@H]1C(O)=C(C(N)=O)C(=O)[C@@]2(O)C(O)=C3C(=O)c4c(O)cccc4[C@@](C)(O)[C@H]3C[C@@H]12` [TETRACYCLINE]: the figures for the MIC in experiment [1] and in experiment [2] were 128 µg/mL (≈ 288 µM) and 512 µg/mL (≈ 1150 µM), respectively.

For `CN[C@H](CC(C)C)C(=O)N[C@H]1C(=O)N[C@@H](CC(N)=O)C(=O)N[C@H]2C(=O)N[C@H]3C(=O)N[C@H](C(=O)N[C@H](C(=O)O)c4cc(O)cc(O)c4-c4cc3ccc4O)[C@H](O)c3ccc(c(Cl)c3)Oc3cc2cc(c3O[C@@H]2O[C@H](CO)[C@@H](O)[C@H](O)[C@H]2O[C@H]2C[C@](C)(N)[C@H](O)[C@H](C)O2)Oc2ccc(cc2Cl)[C@H]1O` [VANCOMYCIN], the MIC came to 512 µg/mL (≈ 353 µM) in experiment [1] and 683 µg/mL (≈ 471 µM) in experiment [2].

In the case of COLISTIN, the MIC in experiment [1] was determined as 1.33 µg/mL; in experiment [2], 1.67 µg/mL.
